Read-outs that look alike come from different tables or passages of the source.
Tests used:
[1] = test system: Wistar Han (Crl:WI[Han]) rats; assay: Rat embryo-fetal development
[2] = Rat embryo-fetal development; settings: female, Wistar Han, rat, in vivo, oral
[3] = in vivo; settings: female, New Zealand White, rabbit, 1000 mg/kg/day
[4] = Maternal toxicokinetics, rat EFD study; type: in vivo; settings: for Cmax: female, Wistar Han, in vivo, po; for Cmax / Exposure Margin AUC24 / Exposure Margin Cmax: rat; for Mean Systemic Exposure AUC24: maternal rat; for Exposure Margin AUC24: relative to predicted human AUC24 68.6 μg h/mL; for Exposure Margin Cmax: relative to predicted human Cmax 4.14 μg/mL
[5] = Maternal toxicokinetics, rabbit EFD study; type: in vivo; settings: for Cmax: female, New Zealand White, in vivo, po; for Cmax / Exposure Margin AUC24 / Exposure Margin Cmax: rabbit; for Mean Systemic Exposure AUC24: maternal rabbit; for Exposure Margin AUC24: relative to predicted human AUC24 68.6 μg h/mL; for Exposure Margin Cmax: relative to predicted human Cmax 4.14 μg/mL
[6] = test system: New Zealand White [Hra:(NZW)SPF] rabbits

## CC(C)(C)[C@H](NC(=O)C(F)(F)F)C(=O)N1C[C@H]2[C@@H]([C@H]1C(=O)N[C@H](C#N)C[C@@H]1CCNC1=O)C2(C)C [NMV, nirmatrelvir]
[1]; 100 mg/kg
  Corpora lutea: 11.4 ± 1.1
  Fetal weight (g)/Litter: 5.3 ± 0.3 g
  Implantation sites: 9.9 ± 1.5
  Maternal Food Consumption (GD 6−21): 313.4 ± 32.0 g/day
  Post-implantation loss: 6.5 ± 15.4%
  Pre-implantation loss: 12.8 ± 11.1%
[1]; 300 mg/kg
  Corpora lutea: 11.5 ± 1.5
  Fetal weight (g)/Litter: 5.5 ± 0.3 g
  Implantation sites: 9.3 ± 2.4
  Maternal Food Consumption (GD 6−21): 322.3 ± 20.8 g/day
  Post-implantation loss: 6.8 ± 14.9%
  Pre-implantation loss: 18.7 ± 19.9%
[1]; 1000 mg/kg
  Corpora lutea: 11.5 ± 1.5
  Fetal weight (g)/Litter: 5.4 ± 0.3 g
  Implantation sites: 9.7 ± 2.6
  Maternal Food Consumption (GD 6−21): 309.5 ± 43.1 g/day
  Post-implantation loss: 9.7 ± 14.1%
  Pre-implantation loss: 15.3 ± 21.0%
[1]; all dose groups
  Effects on embryo-fetal viability: no NMV-related effects on embryo-fetal viability
[1]; any dose up to 1000 mg/kg/day
  Maternal toxicity: no NMV-related maternal toxicity
[1]; up to 1000 mg/kg/day
  Effects on fetal external, visceral, or skeletal morphological development: no effects on fetal external, visceral, or skeletal morphological development
[2]
  NOAEL: 1000 mg/kg/day
[3]
  NOAEL: 300 mg/kg/day
[4]; 100 mg/kg/day
  Cmax: 29000 ± 11000 ng/mL
[4]; 300 mg/kg/day
  Cmax: 43200 ± 14400 ng/mL
[4]; 1000 mg/kg/day
  Cmax: 65400 ± 18700 ng/mL
[4]; GD 17, 100 mg/kg/day
  Mean Systemic Exposure AUC24: 75.5 ± 12.4 μgh^•/mL
  Exposure Margin AUC24: 1.1x
  Exposure Margin Cmax: 7.0x
[4]; GD 17, 300 mg/kg/day
  Mean Systemic Exposure AUC24: 346 ± 92.0 μgh^•/mL
  Exposure Margin AUC24: 5.0x
  Exposure Margin Cmax: 10x
[4]; GD 17, 1000 mg/kg/day
  Mean Systemic Exposure AUC24: 535 ± 330 μgh^•/mL
  Exposure Margin AUC24: 7.8x
  Exposure Margin Cmax: 16x
[5]; 100 mg/kg/day
  Cmax: 17000 ± 6100 ng/mL
[5]; 300 mg/kg/day
  Cmax: 42900 ± 11100 ng/mL
[5]; 1000 mg/kg/day
  Cmax: 99600 ± 46500 ng/mL
[5]; GD 19, 100 mg/kg/day
  Mean Systemic Exposure AUC24: 98.7 ± 27.4 μgh^•/mL
  Exposure Margin AUC24: 1.4x
  Exposure Margin Cmax: 4.1x
[5]; GD 19, 300 mg/kg/day
  Mean Systemic Exposure AUC24: 195 ± 56.8 μgh^•/mL
  Exposure Margin AUC24: 2.8x
  Exposure Margin Cmax: 10x
[5]; GD 19, 1000 mg/kg/day
  Mean Systemic Exposure AUC24: 689 ± 206 μgh^•/mL
  Exposure Margin AUC24: 10x
  Exposure Margin Cmax: 24x
[6]; 100 mg/kg
  Corpora lutea: 9.7 ± 1.5
  Fetal weight (g)/Litter: 40.2 ± 3.0 g
  Implantation sites: 8.2 ± 1.7
  Maternal Body Weight (GD 29): 3.6 ± 0.2 kg
  Maternal Body Weight Gain (GD 7−29): 0.5 ± 0.1 kg
  Maternal Food Consumption (GD 7−29): 2983.9 ± 289.5 g
  Post-implantation loss: 3.3 ± 7.7%
  Pre-implantation loss: 14.4 ± 17.9%
[6]; 300 mg/kg
  Corpora lutea: 9.4 ± 2.1
  Fetal weight (g)/Litter: 40.3 ± 4.5 g
  Implantation sites: 8.6 ± 2.3
  Maternal Body Weight (GD 29): 3.6 ± 0.2 kg
  Maternal Body Weight Gain (GD 7−29): 0.4 ± 0.1 kg
  Maternal Food Consumption (GD 7−29): 2908.9 ± 500.1 g
  Post-implantation loss: 5.4 ± 7.4%

Reference: paper PMC8801796 (Reproductive Toxicology (Elmsford, N.y.), 2022)
